Reference: patent publication US7662789B2, “Peptide substance restoring myocardium function” (“Access Bioscience” CJSC, priority 2004, dated 2010)
Marks after values point to notes of the source that are not given here. Where a SMILES comes first, the peptide text is derived from it.

How the values were obtained:
[1] = test system: isolated guinea pig heart; assay: Isolated guinea pig heart, Langendorf perfusion, 30 min total ischemia and re-perfusion; parameters: species or system guinea pigs
Protocol: The experiment was conducted under conditions of perfusion in isolated hearts of 60 male guinea pigs, by Langendorf. The animals were randomly subdivided into several groups, each consisting of 6 animals. Total cardiac ischemia was induced by means of fully tightening the perfusional solution hose for 30 minutes. Then re-perfusion was performed under the same conditions as before ischemia (control group). In experimental animals perfusion was performed together with Ala-Glu-Asp-Arg (SEQ ID NO:1) tetrapeptide in the concentrations of 0.002-0.05 μg/ml. Mechanical contractions were registered, bioptates, weighing approximately 10 mg, were several times taken from the top of the heart, then the content of malon dialdegide (MDA) was identified in them. The hearts in the end of the experiment and partially before ischemia were frozen in liquid nitrogen for ATP, ADP and AMP content identification.

isolated rat heart [2] = assay: Contractive ability of isolated rat heart after ischemia; conditions: 10 min re-perfusion
Protocol: Another experiment was devoted to the study of the tetrapeptide's effect on the restoration of isolated rat heart's ability to contract after a period of ischemia. The study was conducted on 3 groups, 8 animals in each, in case of the additionally strained cardiac muscle working mode, under conditions of induced contraction rhythm and perfusion solution temperature increase up to 37° C.
The other series of experiments conducted on 12 rat hearts was aimed at the study of the tetrapeptide's protective effect in case of its addition into the perfusate in the concentration of […] before the induction of ischemia. Then “severe” stimulation was conducted (5 Hz frequency) in the heart and contractive activity was estimated. […] The administration of the tetrapeptide in a very small dose of 0.005 μg/ml preserved the heart, which was on the verge of stopping, from fibrillation and contractive activity decrease, restoring the value of the latter index.

[3] = test system: chlorine-calcium arrhythmia in rats; assay: Chlorine-calcium (CaCl2) arrhythmia in rats; format: in vivo; conditions: for Death after the first arrhythmogen administration, abs.: 10 animals
Protocol: The experiment was conducted on 60 white mongrel rats with body weight of 180-200 g. The animals were randomly subdivided into 6 groups, each consisting of 10 animals. The rats were narcotized with urethane and received 220 mg/kg of 10% CaCl2 solution. Ala-Glu-Asp-Arg tetrapeptide was administered to the animals intraperitoneally, once, in the doses of 0.05-1.0 μg/kg in sterile 0.9% NaCl solution.

isolated cardiomyocytes = assay: Cardiomyocyte bioenergetics, polarographic oxygen consumption; format: cell-based, rats
Protocol: Cardiomyocytes were extracted from the cardiac muscle of pubertal rats by Vahouny. Oxygen consumption by isolated cardiomyocytes was registered polarographically at the temperature of 30° C. Part of cardiomyocytes suspension was oxygenated by saturation with carbogen for 1-3 hours at room temperature. The other part of suspension was not oxygenated (conditions of moderate hypoxia). […] The tetrapeptide was introduced into the medium in the concentration of 10 ng/ml.

white mongrel male mice = assay: Acute toxicity, single intramuscular administration in mice; format: in vivo; conditions: single i.m. 1-5 mg/kg; dose 5000 times exceeding the therapeutic one
Protocol: The experiment aimed at the study of acute toxicity was conducted on 66 white mongrel male mice with body weight of 20-23 g. The animals were randomly subdivided into 6 equal groups. The substance was administered once, intramuscularly, in 0.25 ml volume, in the doses of 1 mg/kg, 2 mg/kg, 3 mg/kg, 4 mg/kg and 5 mg/kg in sterile 0.9% NaCl solution. The control animals received 0.9% NaCl solution.

white mongrel male rats = assay: Sub-acute toxicity, 90 days intramuscular in rats; format: in vivo; conditions: 90 days i.m. daily; 1 μg/kg, 0.1 mg/kg, 1 mg/kg; 100-1000 times the therapeutic doses
Protocol: The study of sub-acute toxicity was conducted on 60 white mongrel male rats with body weight of 160-240 g. […] Before the substance's administration, as well as on the 30th, 60th and 90th day after the beginning of the course the morphological composition and the properties of the animals' peripheric blood were studied. Upon completion of the experiment the biochemical and coagulological indices of the animals' blood were studied.

succinate dehydrogenase = conditions: myocardium slices from different animals
isolated rat heart [4] = assay: Contractive ability of isolated rat heart after ischemia; conditions: 0.005 μg/ml; 12 rat hearts; severe stimulation 5 Hz
[5] = 0.002 μg/ml, re-perfusion 15 min
[6] = 0.002 μg/ml, re-perfusion 30 min
[7] = 0.005 μg/ml, re-perfusion 15 min
[8] = 0.005 μg/ml, re-perfusion 30 min
[9] = 0.01 μg/ml, re-perfusion 15 min
[10] = 0.01 μg/ml, re-perfusion 30 min
[11] = 0.05 μg/ml, re-perfusion 15 min
[12] = 0.05 μg/ml, re-perfusion 30 min
[13] = 0.005 μg/ml, listed as tetrapeptide

SMILES: C[C@H](N)C(=O)N[C@@H](CCC(=O)O)C(=O)N[C@@H](CC(=O)O)C(=O)N[C@@H](CCCNC(=N)N)C(=O)O [Tetrapeptide, L-alanyl-L-glutamyl-L-aspartyl-L-arginine] (H-AEDR-OH)
- Amplitude of contractions, % of initial ([1]; 0.002 μg/ml, before ischemia): 100 % of initial
- MDA ([1]; 0.002 μg/ml, before ischemia): 225 ± 23 nmole/g of tissue
- Amplitude of contractions, % of initial [1, 5]: 70 ± 13 % of initial
- MDA [1, 5]: 216 ± 5 nmole/g of tissue
- Amplitude of contractions, % of initial [1, 6]: 81 ± 16 % of initial
- MDA [1, 6]: 220 ± 12 nmole/g of tissue
- Amplitude of contractions, % of initial ([1]; 0.005 μg/ml, before ischemia): 100 % of initial
- MDA ([1]; 0.005 μg/ml, before ischemia): 168 ± 25 nmole/g of tissue
- Amplitude of contractions, % of initial [1, 7]: 89 ± 6 % of initial
- MDA [1, 7]: 231 ± 7 nmole/g of tissue
- Amplitude of contractions, % of initial [1, 8]: 93 ± 5 % of initial
- MDA [1, 8]: 186 ± 10 nmole/g of tissue
- Amplitude of contractions, % of initial ([1]; 0.01 μg/ml, before ischemia): 100 % of initial
- MDA ([1]; 0.01 μg/ml, before ischemia): 203 ± 18 nmole/g of tissue
- Amplitude of contractions, % of initial [1, 9]: 61 ± 4 % of initial
- MDA [1, 9]: 248 ± 8 nmole/g of tissue
- Amplitude of contractions, % of initial [1, 10]: 64 ± 3 % of initial
- MDA [1, 10]: 220 ± 9 nmole/g of tissue
- Amplitude of contractions, % of initial ([1]; 0.05 μg/ml, before ischemia): 100 % of initial
- Energy charge ([1]; 0.05 μg/ml, before ischemia): 7.78 ± 0.14 μmole of adenosine phosphates/g of tissue
- MDA ([1]; 0.05 μg/ml, before ischemia): 156 ± 28 nmole/g of tissue
- Amplitude of contractions, % of initial [1, 11]: 38 ± 13 % of initial
- MDA [1, 11]: 264 ± 13 nmole/g of tissue
- Amplitude of contractions, % of initial [1, 12]: 32 ± 9 % of initial
- Energy charge [1, 12]: 2.98 ± 0.35 μmole of adenosine phosphates/g of tissue
- MDA [1, 12]: 252 ± 11 nmole/g of tissue
- Energy charge ([1]; 0.002-0.005 μg/ml, before ischemia): 7.68 ± 0.21 μmole of adenosine phosphates/g of tissue
- Energy charge ([1]; 0.002-0.005 μg/ml, re-perfusion 30 min): 6.01 ± 0.23 μmole of adenosine phosphates/g of tissue
- Influence on the status of the normal heart ([1]; perfusion without ischemia): does not influence the status of the normal heart
- Amplitude of contractions, % of init. (isolated rat heart [2]; 0.005 μg/ml): 75 ± 12 % of init.
- Coronary duct (isolated rat heart [2]; 0.005 μg/ml): 10.8 ± 1.6 mL/min
- Extent of contracture (isolated rat heart [2]; 0.005 μg/ml): 1.3 ± 0.4 mm
- Max. speed of contraction, % of init. (isolated rat heart [2]; 0.005 μg/ml): 56 ± 10 % of init.
- Max. speed of relaxation, % of init. (isolated rat heart [2]; 0.005 μg/ml): 69 ± 8 % of init.
- Amplitude of contractions, % of init. (isolated rat heart [2]; [13]): 75±12 % of init.
- Coronary duct (isolated rat heart [2]; [13]): 10.8 ± 1.6 mL/min
- Amplitude of contractions, % of init. (isolated rat heart [2]; 0.05 μg/ml): 36 ± 10 % of init.
- Coronary duct (isolated rat heart [2]; 0.05 μg/ml): 9.6 ± 0.7 mL/min
- Extent of contracture (isolated rat heart [2]; 0.05 μg/ml): 2.5 ± 0.3 mm
- Max. speed of contraction, % of init. (isolated rat heart [2]; 0.05 μg/ml): 28 ± 7 % of init.
- Max. speed of relaxation, % of init. (isolated rat heart [2]; 0.05 μg/ml): 28 ± 6 % of init.
- Death after the first arrhythmogen administration, % ([3]; 0.05 μg/kg i.p. once): 50%
- Frequency of sinus rhythm restoration after the first CaCl2 administration ([3]; 0.05 μg/kg i.p. once): 27.0%
- Frequency of ventricle fibrillation development in the course of the experiment ([3]; 0.05 μg/kg i.p. once): 60.3%
- Maximum tolerable arrhythmogen dose ([3]; 0.05 μg/kg i.p. once): 220 mg/kg
- Death after the first arrhythmogen administration, abs. ([3]; 0.05 μg/kg i.p. once): 5
- Death after the first arrhythmogen administration, % ([3]; 0.1 μg/kg i.p. once): 50%
- Frequency of sinus rhythm restoration after the first CaCl2 administration ([3]; 0.1 μg/kg i.p. once): 29.6%
- Frequency of ventricle fibrillation development in the course of the experiment ([3]; 0.1 μg/kg i.p. once): 45.8%
- Maximum tolerable arrhythmogen dose ([3]; 0.1 μg/kg i.p. once): 220 mg/kg
- Death after the first arrhythmogen administration, abs. ([3]; 0.1 μg/kg i.p. once): 5
- Increase of frequency of heart contractions (FHC) ([3]; 0.2 μg/kg and 0.5 μg/kg, bradicardia rats): 12.3-48.6%
- Death after the first arrhythmogen administration, % ([3]; 0.2 μg/kg i.p. once): 30%
- Frequency of sinus rhythm restoration after the first CaCl2 administration ([3]; 0.2 μg/kg i.p. once): 49.0* %
- Frequency of ventricle fibrillation development in the course of the experiment ([3]; 0.2 μg/kg i.p. once): 35.2* %
- Maximum tolerable arrhythmogen dose ([3]; 0.2 μg/kg i.p. once): 440 mg/kg
- Death after the first arrhythmogen administration, abs. ([3]; 0.2 μg/kg i.p. once): 3
- Death after the first arrhythmogen administration, % ([3]; 0.5 μg/kg i.p. once): 40%
- Frequency of sinus rhythm restoration after the first CaCl2 administration ([3]; 0.5 μg/kg i.p. once): 39.5* %
- Frequency of ventricle fibrillation development in the course of the experiment ([3]; 0.5 μg/kg i.p. once): 39.1* %
- Maximum tolerable arrhythmogen dose ([3]; 0.5 μg/kg i.p. once): 440 mg/kg
- Death after the first arrhythmogen administration, abs. ([3]; 0.5 μg/kg i.p. once): 4
- Death after the first arrhythmogen administration, % ([3]; 1.0 μg/kg i.p. once): 60%
- Frequency of sinus rhythm restoration after the first CaCl2 administration ([3]; 1.0 μg/kg i.p. once): 16.3%
- Frequency of ventricle fibrillation development in the course of the experiment ([3]; 1.0 μg/kg i.p. once): 43.6%
- Maximum tolerable arrhythmogen dose ([3]; 1.0 μg/kg i.p. once): 220 mg/kg
- Death after the first arrhythmogen administration, abs. ([3]; 1.0 μg/kg i.p. once): 6
- Most efficient dose ([3]; doses 0.05-1.0 μg/kg i.p. tested): 0.0002 mg/kg
- Coefficient of breath stimulation (breath rate with succinate to initial breath rate) (isolated cardiomyocytes; 10 ng/ml, hypoxia, succinate 1×10^−4 M, without tetrapeptide 7.35±0.26): 1.97±0.26
- NAD.H2 oxidation by cardiomyocytes (isolated cardiomyocytes; tetrapeptide in the medium): increases NAD.H2 oxidation by cardiomyocytes
- Acute toxicity, toxic reactions (white mongrel male mice): does not cause toxic reactions
- Sub-acute toxicity, side effects (white mongrel male rats): absence of side effects
- Activity of succinate dehydrogenase (succinate dehydrogenase): inhibiting effect
- Protective effect when added into the perfusate before induced ischemia (isolated rat heart [4]): restrained the growth of contracture during the period of ischemia
